Measured values taken from ChEMBL document CHEMBL1201862, “PubChem BioAssay data set” (2004).
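48-hour exposure; five concentrations; linearly interpolated endpoints. GI50 marks 50% less growth.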 Calls of active or inactive are those of the source. Cut-off read from the data, not from the text of the source: active = GI50 up to about 1.1 µM and inactive = higher.

Columns and labels:
Assay in all cases: inhibition of tumour cell growth, NCI panel, 48 h
786-0 = test system: 786-0
A498 = test system: A498
COLO 205 = test system: COLO 205
DU-145 = test system: DU-145
KM12 = test system: KM12
LOX IMVI = test system: LOX IMVI
MCF7 = test system: MCF7
MDA-MB-231 = test system: MDA-MB-231
MDA-MB-435 = test system: MDA-MB-435
MDA-N = test system: MDA-N
NCI-H226 = test system: NCI-H226
NCI/ADR-RES = test system: NCI/ADR-RES
OVCAR-5 = test system: OVCAR-5
RXF 393 = test system: RXF 393
SF-268 = test system: SF-268
SK-MEL-28 = test system: SK-MEL-28
SK-MEL-5 = test system: SK-MEL-5
U-251 = test system: U-251
HL-60 = test system: HL-60
SR = test system: SR

Measured: GI50

Cc1cccc2c(O)c3c(O)cc(O)cc3nc12
inactive: 786-0 > 10 µM | A498 > 10 µM | COLO 205 > 10 µM | DU-145 > 10 µM | KM12 > 10 µM | LOX IMVI > 10 µM | MCF7 > 10 µM | MDA-MB-231 > 10 µM | MDA-MB-435 > 10 µM | MDA-N > 10 µM | NCI-H226 > 10 µM | NCI/ADR-RES > 10 µM | OVCAR-5 > 10 µM | RXF 393 > 10 µM | SF-268 > 10 µM | SK-MEL-28 > 10 µM | SK-MEL-5 9.71 µM | U-251 > 10 µM

COc1cccc2c1OC1c3ccccc3OCC1(O)C2 (centres undefined)
inactive: 786-0 > 100 µM | A498 > 100 µM | COLO 205 > 100 µM | DU-145 > 100 µM | KM12 > 100 µM | LOX IMVI > 100 µM | MCF7 > 100 µM | MDA-MB-231 > 100 µM | MDA-MB-435 > 100 µM | MDA-N > 100 µM | NCI-H226 > 100 µM | NCI/ADR-RES > 100 µM | OVCAR-5 > 100 µM | SF-268 > 100 µM | SK-MEL-5 > 100 µM | U-251 > 100 µM

CCOC(=O)C(Cc1ccc(OC(=O)c2ccc(OC)cc2OC)cc1)NC(=O)C(F)(F)F (centres undefined)
inactive: 786-0 31.9 µM | A498 15.7 µM | COLO 205 18.7 µM | DU-145 19.8 µM | HL-60 21.9 µM | KM12 29.4 µM | LOX IMVI 18.6 µM | MCF7 19.7 µM | MDA-MB-231 57.7 µM | MDA-MB-435 18.7 µM | MDA-N 20 µM | NCI-H226 65.2 µM | NCI/ADR-RES 32 µM | OVCAR-5 > 100 µM | RXF 393 19.6 µM | SF-268 31.1 µM | SK-MEL-5 37.3 µM | U-251 32.1 µM

CO/N=C(/C(=O)OC)c1ccccc1COc1cccc(C(F)(F)F)c1
inactive: 786-0 30.7 µM | A498 43.5 µM | COLO 205 41.8 µM | DU-145 26.5 µM | HL-60 9.68 µM | KM12 18.8 µM | LOX IMVI 22.9 µM | MCF7 25.3 µM | MDA-MB-231 72.8 µM | MDA-MB-435 29.3 µM | MDA-N 27.4 µM | NCI-H226 29.4 µM | NCI/ADR-RES 36.9 µM | OVCAR-5 76.2 µM | RXF 393 26.4 µM | SF-268 35.5 µM | SK-MEL-28 78.7 µM | SK-MEL-5 4.79 µM | U-251 36.4 µM

CCOc1ncn(-c2ccc(NC(=S)Nc3cnccn3)cc2)n1
inactive: 786-0 > 10 µM | DU-145 > 10 µM | HL-60 > 10 µM | KM12 > 10 µM | MCF7 > 10 µM | MDA-MB-231 > 10 µM | MDA-MB-435 > 10 µM | MDA-N > 10 µM | NCI-H226 > 10 µM | NCI/ADR-RES > 10 µM | OVCAR-5 > 10 µM | RXF 393 > 10 µM | SF-268 > 10 µM | SR > 10 µM | U-251 > 10 µM

CC(=O)c1ccc(NCc2cc(O)ccc2O)cc1
inactive: 786-0 13.3 µM | A498 36.1 µM | COLO 205 11.8 µM | DU-145 23 µM | HL-60 3.53 µM | KM12 14.2 µM | LOX IMVI 24.8 µM | MCF7 21.7 µM | MDA-MB-231 21.8 µM | MDA-MB-435 21.1 µM | MDA-N 20.4 µM | NCI-H226 34.7 µM | NCI/ADR-RES 36.5 µM | OVCAR-5 21.3 µM | RXF 393 14 µM | SK-MEL-28 40.3 µM | SK-MEL-5 18.3 µM | U-251 21.8 µM
